“Also recorded” adds a separate entry of the source.
How the values were obtained:
Topoisomerase II = target: T1, Topoisomerase II (Homo sapiens, UniProt P11388); experiment: Topoisomerase II inhibition screening (supercoiled plasmid relaxation, then kDNA decatenation); format: biochemical; design: key to TOP2 Inhib.: Y is an indication that activity was found
T1 construct: purchased TopoGENE (TopoGEN) TG2000H / kit TG1001
Method: In vitro Topo II activity assays—K-DNA decatenation assays were performed using the human Topo II assay kit (TG1001, TopoGENE™) with Etoposide and ICRF193 as poison and catalytic inhibitors respectively. DNA relaxation assays were performed by incubating the supercoiled pHOT™ plasmid with human Topo IIα (TG2000H™, TopoGENE™) at 37 degrees for one hour. Reactions were stopped by adding 10% SDS, EDTA and proteinase K. Plasmid DNAs were separated on DNA agarose gel and stained with ethidium bromide for visualization.
Medium Throughput Screening Assays A supercoiled plasmid relaxation assay was used as a first, course filter to determine candidate small molecules. Small molecule candidates that were sufficiently active in the first round screening were then subject to the kDNA decatenation assay.
Second Round Screening With the discovered active compounds 19 and 23, a new screen was initiated to look for similar molecules. For this, the shape similarity screening program ROCS™^10 was used The compounds chosen for the ROCS™ search was based on the docking conformation of Compound 23. The ZINC-15 library filtered down to 6 million molecules described previously was used for this screening. The top 62 molecules were hand-picked based on their ROCS™ similarity as well as their docking scores. These molecules were ordered and tested with the same medium throughput assays previously described. A large enrichment in the proportion of active molecules was observed, of close to 10-fold relative to the first round, validating the virtual screening pipeline.

human TOP2a = target: T2, human TOP2a (Homo sapiens, UniProt P11388); experiment: K-DNA decatenation assay; format: biochemical; details: 0-50 μM, 37° C., 1 hour
T2 construct: purchased TopoGENE (TopoGEN) TG1001 (assay kit)
Method: DNA samples were separated by electrophoresis on 0.8% agarose gels and visualized by ethium bromide staining. The positions of K-DNA and decatenated (D) DNA products are marked by arrows. Experiments were repeated five times and the densitometry of the D bands were used to establish an inhibition curve to calculate IC50. (b) Supercoiled pHOT™ plasmid was incubated with human TOP2a in the presence of 50 μM Etopside, 50 uM ICRF193 or 0-50 μM of compound #60 (Top60) compound at 37° C. for 1 hour. DNA products were separated by electrophoresis on 1% agarose gels and visualized by ethium bromide staining. The positions of supercoiled (SC), nicked (N), and relaxed (R) DNA bands are marked by arrows. Experiments were repeated five times and the densitometiy of the SC bands were used to establish an inhibition curve to calculate IC50. (c) Supercoiled pHOT™ plasmid was incubated with Topoisomerase I prior to addition of either mAMSA or compound #60 (Top60) at concentrations of 0, 5, 10, 25 and 50 μM at 37° C. for 30 minutes. Reactions were stopped by 1% SDS at 37° C. for 15 minutes. DNA products were separated by electrophoresis on a 1% agarose gels and visualized by ethium bromide staining. […]

Hela cells [1] = experiment: BrdU incorporation assay; format: cell-based; details: 20 μM, 48 hours, listed as Top60
Method: (§1) BrdU incorporation rates were determined by Millipore™ BrdU incorporation kit (CAT #2750). (b-c) Hela cells were treated with vehicle or 20 μM of Top60 for 48 hours. Cells were then stained with APC-BrdU and 7-AAD for 4 hours, and subjected to FACS assays to determine cell populations at Sub G0/G1, G0/G1, S, and G2/M phases. Results were collected from three independent experiments, (d-e) Hela cells were treated with either vehicle or 20 μM T60 for 48 hours. Cells were fixed and co-stained with DAPI and phalloidin, and examined by confocal microscopy. Fifty cells were chosen from five high power fields to analyze nuclei sizes by the Image J software. Representative bright field microscopic images were also shown. Scale bar=50 μm.
(§2) BrDU incorporation and cell proliferation assays—Cell proliferation rates were measured by using the CellTitre™ 96 AqueousOne™ kit (Promega™) and bromodeoxyuridine (BrdU) assay kit (Millipore™) according to the manufacturer's protocol, with minor modifications as we have previously described by Li H. et al.^19

Hela cells [2] = experiment: FACS cell cycle assay; format: cell-based; details: 20 μM, 48 hours
Method: as §1
FACS assays—Cell cycling was assessed by using BrdU incorporation into S-phase DNA through using the APC BrdU flow kit (BD Pharmingen™; Franklin Lakes, N.J., USA) according to manufacturer's protocol. Briefly, 1 mM of BrdU was added to cells and incubated for 6 hours. Cells were incubated with anti-BrdU antibody and stained with 7-AAD before processing the cells for flow cytometry.

Hela cells [3] = experiment: LDH cytotoxicity assay; format: cell-based; details: 0-20 μM, 48 hours, listed as Top60
Method: (§3) Cytotoxicity was evaluated by measuring LDH levels from cell culture media; (b) K562 cells were treated with either vehicle or 10-20 μM of Top60, Etoposide and ICRF187 for 4 hours. Whole cell lyses were collected to measure γH2AX levels with vinculin as the loading control; (c) K562 cells were treated with 0, 1, 5, 10, 15 and 20 μM of Top60, 20 μM Etoposide or 20 uM ICRF187 for 48 hours. Cell proliferation rates were determined by MTS assays; and (d) K562 cells were treated with 20 μM of Top60, Etoposide or ICRF187 for 0, 24, 48 and 72 hours. Cell proliferation rates were measured by MTS assays. All results were collected from three independent experiments.
Cytotoxicity assay—Cytotoxicity assays were performed using the commercial kit from Pierce (CAT #8078). Briefly, culture media was collected and used to measure lactate dehydrogenase (LDH) levels by a colorimetric method following manufacture's protocol.

K562 cells = experiment: MTS cell proliferation assay; format: cell-based; details: 0-20 μM 48 hours, 20 μM 0-72 hours, listed as Top60
Method: as §3, §2

T1 sequence (P11388 whole entry): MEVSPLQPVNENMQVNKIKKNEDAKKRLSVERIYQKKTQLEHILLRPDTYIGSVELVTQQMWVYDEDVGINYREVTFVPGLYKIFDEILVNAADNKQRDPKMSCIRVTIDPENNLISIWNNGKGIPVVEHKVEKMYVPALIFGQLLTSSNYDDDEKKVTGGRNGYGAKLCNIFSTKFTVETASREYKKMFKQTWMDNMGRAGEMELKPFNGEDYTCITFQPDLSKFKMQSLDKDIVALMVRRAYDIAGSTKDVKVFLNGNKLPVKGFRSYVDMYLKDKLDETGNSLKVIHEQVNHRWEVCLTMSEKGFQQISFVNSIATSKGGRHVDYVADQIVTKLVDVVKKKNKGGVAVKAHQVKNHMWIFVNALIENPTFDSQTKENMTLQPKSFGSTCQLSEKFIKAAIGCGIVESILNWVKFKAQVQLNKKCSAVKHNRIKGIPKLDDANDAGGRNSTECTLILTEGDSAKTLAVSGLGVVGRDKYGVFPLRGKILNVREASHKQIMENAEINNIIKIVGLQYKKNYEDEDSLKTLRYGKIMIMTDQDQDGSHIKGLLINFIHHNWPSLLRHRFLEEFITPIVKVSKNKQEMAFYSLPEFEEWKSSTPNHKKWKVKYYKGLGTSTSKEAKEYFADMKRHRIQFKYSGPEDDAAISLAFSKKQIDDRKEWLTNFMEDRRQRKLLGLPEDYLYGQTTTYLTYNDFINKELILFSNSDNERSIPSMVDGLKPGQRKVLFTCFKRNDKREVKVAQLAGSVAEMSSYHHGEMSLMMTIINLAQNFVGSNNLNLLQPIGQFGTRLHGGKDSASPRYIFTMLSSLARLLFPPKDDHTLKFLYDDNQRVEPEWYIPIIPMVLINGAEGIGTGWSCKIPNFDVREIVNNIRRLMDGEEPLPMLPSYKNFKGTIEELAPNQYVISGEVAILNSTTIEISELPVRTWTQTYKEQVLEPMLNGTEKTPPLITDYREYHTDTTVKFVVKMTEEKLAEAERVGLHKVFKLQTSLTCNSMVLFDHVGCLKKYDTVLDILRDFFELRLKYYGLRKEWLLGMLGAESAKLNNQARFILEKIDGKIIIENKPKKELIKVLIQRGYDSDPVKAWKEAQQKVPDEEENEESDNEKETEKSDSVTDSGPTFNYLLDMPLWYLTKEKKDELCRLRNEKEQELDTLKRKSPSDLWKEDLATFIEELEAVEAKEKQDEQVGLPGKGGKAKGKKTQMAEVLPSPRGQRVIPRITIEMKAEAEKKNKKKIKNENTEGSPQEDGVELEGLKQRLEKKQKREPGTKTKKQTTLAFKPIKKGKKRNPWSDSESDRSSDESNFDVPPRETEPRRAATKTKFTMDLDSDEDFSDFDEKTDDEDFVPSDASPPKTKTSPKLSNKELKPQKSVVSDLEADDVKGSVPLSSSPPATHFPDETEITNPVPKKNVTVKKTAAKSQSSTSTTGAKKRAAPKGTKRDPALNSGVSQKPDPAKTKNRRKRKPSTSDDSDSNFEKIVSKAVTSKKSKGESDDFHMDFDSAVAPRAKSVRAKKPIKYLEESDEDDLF
T2 sequence (P11388 whole entry): as above

TOP2 Inhib. (Topoisomerase II): Y | IC50 of Topo II inhibition (Topoisomerase II; assay not specified): nanomolar | relative activity among compounds tested in the screening round (Topoisomerase II; medium throughput relaxation and kDNA decatenation assays): most active of the group | Topoisomerase II inhibitory activity (Topoisomerase II; result in words): inhibits TOP2 activity | IC50 in the decatenation assay (human TOP2a): nanomolar
SMILES: O=C(Nc1ccc(Nc2ccccc2)cc1)c1ccc[nH]c1=S [Compound 60]
inhibitory activity against Topo II compared with ICRF-193 (Topoisomerase II): more potent inhibitory activity against Topo II than ICRF-193 | cellular replication (BrdU incorporation) (Hela cells [1]): Decreased cellular replication; also recorded: inhibits DNA synthesis at S phase | cell population in G2/M (Hela cells [2]): increased cell population in G2/M | cell population in S-phase (Hela cells [2]): large cell population delayed in S-phase | cytotoxicity (LDH levels in culture media) (Hela cells [3]): Low cytotoxic affect; also recorded: low cytotoxicity | cell proliferation (MTS) (K562 cells): strong inhibitory effects; also recorded: inhibits cell proliferation
